No end group written: not given here.

Holding throughout (conditions): level of binding: >0.5, 0.25-0.5, <0.25
In test [1] the target is MHC class I allele A*0101 (A1) (Homo sapiens, UniProt P04439, A114D/A174V/A182V/D101N/D185E/E176A/E190D/L180R/Q94H/R68K/S129P/T187R/V100A/V91M/W191G). The experiment in a line: iScore multi-parametric analysis, A*0101. The class given is binding. The protocol:
(§1) Finally, multiparametric analysis is performed on the results from these assays and an iScore is generated. The iScore represents a measure of the overall quality of peptide-MHC binding, enabling candidate peptides to be ranked in order of binding quality and allowing rational prioritisation of peptides for functional cellular follow-up studies.
(§2) As part of the validation of the iTopia system, a panel of overlapping peptides derived from the CMV pp 65 protein were used and their binding properties for the A*0201 allele analysed. A number of T cell epitopes restricted by HLA A*0201 had already been identified (by more conventional methodologies) by other researchers for this protein. In the iTopia study, it was reported that an iScore of: >0.5 represented “good quality binding”; between 0.25 and 0.5 represented “medium quality binding”; and <0.25 represented “poor quality binding”. Six of the 20 peptides which gave a “good” iScore (>0.5) for A*0201, represented previously characterised CMV pp 65 A*0201 epitopes.
(§3) Each MHC class I allele has different binding properties and affinities for peptides which they bind. Therefore, information obtained with HLA A*0201 in which peptides are ranked as good, medium or poor binders using >0.5, 0.25-0.5 and <0.25 as thresholds is not necessarily transferable between alleles. Also, different proteins are likely to have distinct immunogenic profiles and the affinities between peptides and MHC class I molecules will be different between proteins. This may be particularly relevant in the case of self-antigens where immunogenicity is likely to be lower than in foreign proteins.
(§4) Multi-parametric analysis permits the integration of half-life and ED50 parameters in an integrated iScore. This reflects the capability of a peptide to reconstitute with MHC molecules in a stable complex, defining its overall level of binding i.e. the iScore value represents the overall quality of peptide-MHC binding and is used to rank candidate peptides as an indicator of functional relevance. The lead candidate epitopes for each allele are selected for cellular functional analysis to confirm their biological relevance.
(§5) The changes in gradient of the graphs in FIGS. 7 to 10 are indicated by a line which delineates the populations of iScores forming the basis of discrimination for further functional studies.

Test [2] concerns the target MHC class I allele A*0301 (A3) (Homo sapiens, UniProt P04439). The experiment in a line: iScore multi-parametric analysis, A*0301. The class given is binding. The protocol: as §1, §2, §3, §4, §5
The target of test [3] is MHC class I allele A*0201 (A2) (Homo sapiens, UniProt P04439, D140Y/D185E/D98H/E176V/E277Q/G131W/G231S/I119V/I121R/I166T/I218V/L300P/L318F/N151K/N90K/P208A/P217A/Q86G/Q94H/R138H/R169H/T345S). The experiment in a line: iScore multi-parametric analysis, A*0201. It is filed as binding. The method, then:
as §1, §2, §3, §4, §5

The target of test [4] is MHC class I allele B*0702 (B7) (Homo sapiens, UniProt P01889). In words: iScore multi-parametric analysis, B*0702. The method, then: as §1
As part of the validation of the iTopia system, a panel of overlapping peptides derived from the CMV pp 65 protein were used and their binding properties for the A*0201 allele analysed. A number of T cell epitopes restricted by HLA A*0201 had already been identified (by more conventional methodologies) by other researchers for this protein. In the iTopia study, it was reported that an iScore of: >0.5 represented “good quality binding”; between 0.25 and 0.5 represented “medium quality binding”; and <0.25 represented “poor quality binding”.
as §4

Take ELILNHIVP [Peptide 89]: in test [1], the “iScore, MHC Class I Molecule A*0101” value is on record as 0. Also, the “iScore, MHC Class I Molecule A*0301” value in test [2] was 0. The “iScore, MHC Class I Molecule A*0201” value in test [3] stood at 0.067. In test [4], the “iScore, MHC Class I Molecule B*0702” value amounted to 0.

With ASVSAPSPL [Peptide 84], in test [1], the “iScore, MHC Class I Molecule A*0101” value is 0. Moreover, the “iScore, MHC Class I Molecule A*0301” value in test [2] was determined as 0. Besides, the “iScore, MHC Class I Molecule A*0201” value in test [3] was 0.059. The “iScore, MHC Class I Molecule B*0702” value in test [4] was found to be 0.017.

In the case of LVELILNHI [Peptide 88], in test [1], the “iScore, MHC Class I Molecule A*0101” value worked out at 0. In test [2], the “iScore, MHC Class I Molecule A*0301” value turned out to be 0. Further, the “iScore, MHC Class I Molecule A*0201” value in test [3] came to 0.109. Moreover, the “iScore, MHC Class I Molecule B*0702” value in test [4] is on record as 0.

As for LSPFAFSGS [Peptide 79], in test [1], the “iScore, MHC Class I Molecule A*0101” value stood at 0. Also, in test [2], the “iScore, MHC Class I Molecule A*0301” value is recorded as 0. In test [3], the “iScore, MHC Class I Molecule A*0201” value is 0.064. Also, the “iScore, MHC Class I Molecule B*0702” value in test [4] is on record as 0.

In the case of QNRSFEGMV [Peptide 96], the “iScore, MHC Class I Molecule A*0101” value in test [1] was 0. Moreover, the “iScore, MHC Class I Molecule A*0301” value in test [2] is recorded as 0. The “iScore, MHC Class I Molecule A*0201” value in test [3] is 0.052. Also, the “iScore, MHC Class I Molecule B*0702” value in test [4] came to 0.

Regarding SLVSLTYVS [Peptide 123], in test [1], the “iScore, MHC Class I Molecule A*0101” value is 0. In addition, the “iScore, MHC Class I Molecule A*0301” value in test [2] is 0. The “iScore, MHC Class I Molecule A*0201” value in test [3] came out at 0.206. Moreover, in test [4], the “iScore, MHC Class I Molecule B*0702” value stood at 0.

With CVNRNLTEV [Peptide 39], in test [1], the “iScore, MHC Class I Molecule A*0101” value came out at 0. The “iScore, MHC Class I Molecule A*0301” value in test [2] was found to be 0. Also, the “iScore, MHC Class I Molecule A*0201” value in test [3] turned out to be 0.05. Moreover, the “iScore, MHC Class I Molecule B*0702” value in test [4] is 0.093.

Take GMVVAALLA [Peptide 99]: in test [1], the “iScore, MHC Class I Molecule A*0101” value was found to be 0. The “iScore, MHC Class I Molecule A*0301” value in test [2] is on record as 0. Besides, the “iScore, MHC Class I Molecule A*0201” value in test [3] came out at 0.384. For the same sequence, the “iScore, MHC Class I Molecule B*0702” value in test [4] was 0.

LLGWVSSSS [Peptide 13]: the “iScore, MHC Class I Molecule A*0101” value in test [1] amounted to 0. For the same sequence, the “iScore, MHC Class I Molecule A*0301” value in test [2] turned out to be 0. The “iScore, MHC Class I Molecule A*0201” value in test [3] is given as 0.243. For the same sequence, the “iScore, MHC Class I Molecule B*0702” value in test [4] was found to be 0.

Take VLPAGAFAR [Peptide 53]: the “iScore, MHC Class I Molecule A*0101” value in test [1] came to 0. Besides, the “iScore, MHC Class I Molecule A*0301” value in test [2] was found to be 0.027. Also, the “iScore, MHC Class I Molecule A*0201” value in test [3] is 0.081. Also, the “iScore, MHC Class I Molecule B*0702” value in test [4] is reported as 0.

For DGRLRLARL [Peptide 7], in test [1], the “iScore, MHC Class I Molecule A*0101” value was found to be 0. Besides, the “iScore, MHC Class I Molecule A*0301” value in test [2] turned out to be 0. For the same sequence, the “iScore, MHC Class I Molecule A*0201” value in test [3] is on record as 0. The “iScore, MHC Class I Molecule B*0702” value in test [4] amounted to 0.038.

With APFLASAVS [Peptide 23], the “iScore, MHC Class I Molecule A*0101” value in test [1] is on record as 0. Besides, the “iScore, MHC Class I Molecule A*0301” value in test [2] is given as 0. Besides, the “iScore, MHC Class I Molecule A*0201” value in test [3] came to 0.041. For the same sequence, in test [4], the “iScore, MHC Class I Molecule B*0702” value is 0.176.

Take SPTSSASSF [Peptide 17]: in test [1], the “iScore, MHC Class I Molecule A*0101” value amounted to 0. Besides, in test [2], the “iScore, MHC Class I Molecule A*0301” value is reported as 0. In addition, the “iScore, MHC Class I Molecule A*0201” value in test [3] is on record as 0. Moreover, the “iScore, MHC Class I Molecule B*0702” value in test [4] worked out at 0.335.

For LDLSNNSLV [Peptide 120], the “iScore, MHC Class I Molecule A*0101” value in test [1] is reported as 0. Moreover, in test [2], the “iScore, MHC Class I Molecule A*0301” value turned out to be 0. The “iScore, MHC Class I Molecule A*0201” value in test [3] was found to be 0.158. Moreover, the “iScore, MHC Class I Molecule B*0702” value in test [4] came out at 0.

Regarding SLRHLDLSN [Peptide 118], the “iScore, MHC Class I Molecule A*0101” value in test [1] was 0. For the same sequence, the “iScore, MHC Class I Molecule A*0301” value in test [2] was 0. Also, in test [3], the “iScore, MHC Class I Molecule A*0201” value was found to be 0.03. In test [4], the “iScore, MHC Class I Molecule B*0702” value is 0.

With SLQTSYVFL [Peptide 176], the “iScore, MHC Class I Molecule A*0101” value in test [1] is reported as 0. In test [2], the “iScore, MHC Class I Molecule A*0301” value was found to be 0. In test [3], the “iScore, MHC Class I Molecule A*0201” value came to 0.561. Moreover, the “iScore, MHC Class I Molecule B*0702” value in test [4] worked out at 0.

For the origin of these results see patent US8147838B2, “Peptide” (priority 2005, dated 2012).
